# Results published in patent US20070071717A1, “Treatment of B cells with IL-21 and B cell activators induces Granzyme B production” (University of Iowa Research Foundation, priority 2005, published 2007).
# Experiments:
# [1] = tested on: untreated, bystander B-CLL cells; experiment: Bystander cell killing assay with autologous B-CLL cells; assay type: cell-based, human; settings: 24 hours treatment, washed, 2 days co-culture
# Experimental: Bystander cell assay. Cells were harvested from CLL subjects and separated into aliquots. One aliquot was treated with CpG ODN, IL-21 or both, while a second was untreated but labeled with a membrane dye. Both aliquots were washed thoroughly, and mixed together in the indicated ratio. Cells were harvested after two days, and the number of viable cells in each aliquot determined by gating on the stained or unstained cells.
# (§1) Flow cytometry. Antibodies to CD5, CD19, CD27 as well as CD107a were purchased from BD Bioscoences (San Diego, Calif.). IL-21 receptor protein expression was detected using a mAB (clone 152512) from R&D Systems (Minneapolis, Minn.). PKH26 staining was used to identify untreated cells in bystander assays. B-CLL cells were resuspended at a density of 1×10^7 cells/ml in diluent C containing 2 μM PKH26 (both from Sigma, Saint Louis, Mo.). […] Flow cytometric analyses were performed on a FACScan (Becton Dickinson Immunocytometry Systems, San Jose, Calif.) and data analyzed using the program FlowJo (version 6.4.1, Tree Star Inc., Stanford, Calif.).
# B-CLL cells treated with CpG ODN and IL-21 can kill untreated autologous cells. […] The inventors next evaluated whether B-CLL cells treated with IL-21 and CpG ODN have the potential to kill. […] The survival of the unstained, untreated cells was then evaluated by flow cytometry.
# B-CLL cells [2] = experiment: Flow cytometric apoptosis / cell survival assay (Annexin V, PI) of B-CLL cells; assay type: cell-based, human
# Experimental: Apoptosis and cell survival assay. Cells were harvested at the indicated time points by staining all cells from a given well with mAb for CD19, CD5 and FITC-labeled Annexin V (BD Biosciences, San Diego, Calif.). A predetermined number of calibration beads (CaliBRITE™ Beads, BD Biosciences, San Diego, Calif.) were then added to each sample to allow for normalization of cell counts in different samples at different time points.
# (§2) Flow cytometric apoptosis assays. Cells were stained with Annexin V (BD Biosciences, San Diego, Calif.), or cell-permeable fluorogenic substrates specific for Granzyme B or Caspase 6 for 1 hour at room temperature according to the manufacturer's instructions (Oncolmmunin, Gaithersburg. Md.). A pre-determined number of calibration beads (CaliBRITE™ Beads, BD Biosciences, San Diego, Calif.) was added to each sample to allow for normalization of cell counts at different time points. Propidium iodide at 1 μg/ml was added just prior to flow cytometric analysis. The count of viable cells rather than the count of apoptotic cells was used for the calculation of cell survival because of concerns some non-viable cells may have undergone lysis and not have been available for counting. Absolute cell survival was expressed as percentage of viable cell counts relative to initial plating counts.
# [3] = tested on: benign peripheral blood B cells; experiment: Granzyme B flow cytometry and ELISpot with purified benign peripheral B cells; assay type: cell-based, human
# Experimental: as §1, with “Mo.). After 3 minutes, the reaction was stopped by adding an equal volume of FBS (HyClone, Ogden, Utah). Subsequently cells were washed 3 times and finally resuspended in AIM-V medium. For flow cytometric Granzyme and Perforin detection, cells were incubated at 1×10^6/ml for 13 hrs, Brefeldin A (Epicentre Technologies, Madison, Wis.) added to a final concentration of […], and cells cultured for 5 more hours.” for “Mo.).”
# Elispot assays for human Granzyme B and Perforin. […] Plates were dried completely, and spots read on an Immunospot Series 1 Analyzer and counted using Immunospot 3 software, both from C.T.L. Cellular Technology Ltd. (Cleveland, Ohio).
# Purified B cells = experiment: RT-PCR for granzyme B and perforin in purified B cells; assay type: cell-based, human; settings: 18 hours, with or without anti-BCR antibodies
# Experimental: Purified B cells (purity >99.9%) were cultured for 18 hours in the presence or absence of IL-21 and B cell receptor stimulation (anti-BCR antibodies). Subsequently RNA was isolated and real time RT-PCR with specific primers and probes for granzyme B and perforin was performed. In addition to real time RT-PCR, conventional RT-PCR was also performed and PCR products were run on a gel. The expected amplicon sized are 218 bp (base pairs) and 146 bp for granzyme B and perforin respectively.
# B-CLL cells [4] = experiment: Intracellular flow cytometry for Granzyme B, Granzyme A and Perforin in B-CLL cells; assay type: cell-based, human; settings: 18 hours, Brefeldin A for the last hours
# Experimental: Flow cytometry. […] For flow cytometric Granzyme and Perforin detection, cells were incubated at 1×10^6/ml for 13 hrs, Brefeldin A (Epicentre Technologies, Madison, Wis.) added to a final concentration of 1 mg/ml, and cells cultured for 5 more hours. Intracellular staining was performed using a Fix and Perm kit (Caltag Laboratories, Burlingame, Calif.) according to the manufacturer's instructions. Briefly, cells were washed once and resuspended in Fixation Buffer, incubated for 15 minutes at room temperature and washed with PBS. Cells were then resuspended in Permeabilization Buffer and PE- or FITC-labeled antibodies to Granzyme B (clone GB12; Caltag Laboratories), Perforin (clone dG9; BD Pharmingen), Granzyme A (clone CB9; BD Pharmingen) or suitable control antibodies were added. After another 15 minute incubation at room temperature, cells were washed with PBS. Flow cytometric analyses were performed on a FACScan (Becton Dickinson Immunocytometry Systems, San Jose, Calif.) and data analyzed using the program FlowJo (version 6.4.1, Tree Star Inc., Stanford, Calif.).
# benign B cells = experiment: Apoptosis / cell survival assay of benign B cells; assay type: cell-based, human; settings: 3 days of culture
# Experimental: as §2, with “Apoptosis and cell survival assay. Cells were harvested at the indicated time points by staining all cells from a given well with mAb for CD19, CD5 and FITC-labeled Annexin V (BD Biosciences, San Diego, Calif.). A predetermined number of calibration beads (CaliBRITE™ Beads, BD Biosciences, San Diego, Calif.) were then added to each sample to allow for normalization of cell counts in different samples at different time points. Flow” for “Flow”
# [5] = tested on: Daudi cells (pre-B cell line); experiment: IFN-γ ELISpot with Daudi cells; assay type: cell-based; settings: 10^5 cells/well, 16 hours
# Experimental: Daudi cells (pre-B cell line) were incubated on IFN-γ-ELISpot plates in the presence of IL-21, CpG ODN, B cell receptor stimulation or various combinations at a cell concentration of 10^5 cells/well. After 16 hours plates were developed and analyzed.
# IL-21 receptor = experiment: Flow cytometry of IL-21 receptor protein on B-CLL cells; assay type: cell-based, human; settings: after 4 and 7 days of incubation, ODN 2.5 μg/ml, FACS
# Experimental: Flow cytometry. Antibodies to CD5, CD19, CD27 as well as CD107a were purchased from BD Bioscoences (San Diego, Calif.). IL-21 receptor protein expression was detected using a mAB (clone 152512) from R&D Systems (Minneapolis, Minn.). PKH26 staining was used to identify untreated cells in bystander assays. B-CLL cells were resuspended at a density of 1×10^7 cells/ml in diluent C containing 2 μM PKH26 (both from Sigma, Saint Louis, Mo.). After 3 minutes, the reaction was stopped by adding an equal volume of FBS (HyClone, Ogden, Utah). Subsequently cells were washed 3 times and finally resuspended in AIM-V medium. For flow cytometric Granzyme and Perforin detection, cells were incubated at 1×10^6/ml for 13 hrs, Brefeldin A (Epicentre Technologies, Madison, Wis.) added to a final concentration of […], and cells cultured for 5 more hours. Intracellular staining was performed using a Fix and Perm kit (Caltag Laboratories, Burlingame, Calif.) according to the manufacturer's instructions. Briefly, cells were washed once and resuspended in Fixation Buffer, incubated for 15 minutes at room temperature and washed with PBS. […] Flow cytometric analyses were performed on a FACScan (Becton Dickinson Immunocytometry Systems, San Jose, Calif.) and data analyzed using the program FlowJo (version 6.4.1, Tree Star Inc., Stanford, Calif.).
Substance,killing of untreated autologous bystander B-CLL cells by treated B-CLL cells [1],"apoptosis of B-CLL cells (B-CLL cells [2]; 4 days, Annexin V and PI)","ED50 to induce apoptosis of B-CLL cells (B-CLL cells [2]; agent alone, 4 days) [µg/mL]","apoptosis of CD5-negative, atypical B-CLL (B-CLL cells [2]; preliminary, unpublished results)",Granzyme B expression by highly purified (99.9%) benign B cells [3],transcription of the gene for granzyme B in B cells (Purified B cells),transcription of the gene for perforin in B cells (Purified B cells),"Granzyme B(+) B-CLL cells, flow cytometry gating on CD19(+) (B-CLL cells [4])",apoptosis of benign B cells (benign B cells),secretion of interferon-γ by Daudi cells [5],IL-21 receptor protein levels on B-CLL cells (IL-21 receptor)
IL-21: cytokine of 131 residues (SEQ ID NO:1); Human IL-21 purchased from BioSource,No such bystander effect,induced some apoptosis,0.04,do not undergo apoptosis,induced expression of Granzyme B,induces transcription,induces transcription,rare Granzyme B(+) B cells,Neither IL-21 alone nor IL-21 plus CpG ODN induced apoptosis,induces the secretion,
"control ODN: phosphorothioate-phosphodiester-modified control oligodeoxynucleotide 2243, 5′-GGGGGAGCATGCTGGGGGGG-3′ (SEQ ID NO:5) (DNA GGGGGAGCATGCTGGGGGGG; DNA, backbone and methylation of C not given here; phosphorothioate-phosphodiester chimeric backbone)",,,,,,,,,,,no detectable effect
